The data set in a line: Liquid-crystalline properties of single compounds, determined at 10% in nematic host mixture ZLI-4792. It is filed as physicochemical. The following applies: 10% in host mixture ZLI-4792. As for the experimental part:
Außerdem werden folgende Abkürzungen und Symbole verwendet: Vo Schwellenspannung, kapazitiv [V] bei 20°C, V10 optische Schwelle für 10 % relativen Kontrast [V] bei 20°C, ne außerordentlicher Brechungsindex bei 20°C und 589 nm, no ordentlicher Brechungsindex bei 20°C und 589 nm, Δn optische Anisotropie bei 20°C und 589 nm, ε⊥ dielektrische Suszeptibilität senkrecht zum Direktor bei 20°C und 1 kHz, ε∥ dielektrische Suszeptibilität parallel zum Direktor bei 20°C und 1 kHz, Δε dielektrische Anisotropie bei 20°C und 1 kHz, Kp., T(N,I) Klärpunkt [°C], γ1 Rotationsviskosität bei 20°C [mPa·s], K1 elastische Konstante, "splay"-Deformation bei 20°C [pN], K2 elastische Konstante, "twist"-Deformation bei 20°C [pN], K3 elastische Konstante, "bend"-Deformation bei 20°C [pN], LTS "low temperature stability" (Phase), bestimmt in Testzellen, ton Einschaltzeit [Transmissionsänderung von 10 % auf 90 %) bei 20 °C und definierter Operationsspannung, toff Ausschaltzeit [Transmissionsänderung von 90 % auf 10 %) bei 20 °C, RT Reaktionszeit (ton + toff) HR20 "voltage holding ratio" bei 20°C [%] und HR100 "voltage holding ratio" bei 100°C [%].
Alle physikalischen Eigenschaften werden und wurden nach "Merck Liquid Crystals, Physical Properties of Liquid Crystals", Status Nov. 1997, Merck KGaA, Darmstadt, Deutschland bestimmt und gelten für eine Temperatur von 20°C und An wird bei 589 nm und Δε bei 1 kHz bestimmt, sofern nicht jeweils explizit anders angegeben.
Die flüssigkristallinen Eigenschaften der Einzelverbindungen werden, soweit nicht anders angegeben, in der nematischen Wirtsmischung ZLI-4792 (kommerziell erhältlich von Merck KGaA, Darmstadt) bei einer Konzentration von 10% bestimmt.

With `CCCc1ccc(-c2cc(F)c(-c3ccc(C)s3)c(F)c2)cc1` [PUS-3-1, 2-(3,5-Difluor-4'-propyl-biphenyl-4-yl)-5-methyl-thiophen], the Δε entry (dielectric anisotropy at 20°C and 1 kHz) is “+3,1”. For the same molecule, where the note is “optical anisotropy at 20°C and 589 nm”, the Δn was 0,3055. The γ1 (rotational viscosity at 20°C) was determined as 102 mPa·s.

The record behind these values is EP2593528B1, “LIQUID-C[…] WITH STABILIZER” (Merck Patent GmbH, priority 2010, dated 2012).
